We go through three compounds from US20080306098A1, “Pharmacokinetics of protease inhibitors and other drugs” (priority 2006, published 2008).

Where two headings read alike, the source gives them in different places.

For data set [1] the following is noted: non-transplant patients; cited from earlier work.
For data set [2] the following is noted: in vivo; cited from earlier work.
The target of data set [3] is T1, CYP3a4 (Homo sapiens, UniProt P08684).
T1 construct: purchased Invitrogen (Carlsbad, Calif.)
T1 sequence (P08684 whole entry): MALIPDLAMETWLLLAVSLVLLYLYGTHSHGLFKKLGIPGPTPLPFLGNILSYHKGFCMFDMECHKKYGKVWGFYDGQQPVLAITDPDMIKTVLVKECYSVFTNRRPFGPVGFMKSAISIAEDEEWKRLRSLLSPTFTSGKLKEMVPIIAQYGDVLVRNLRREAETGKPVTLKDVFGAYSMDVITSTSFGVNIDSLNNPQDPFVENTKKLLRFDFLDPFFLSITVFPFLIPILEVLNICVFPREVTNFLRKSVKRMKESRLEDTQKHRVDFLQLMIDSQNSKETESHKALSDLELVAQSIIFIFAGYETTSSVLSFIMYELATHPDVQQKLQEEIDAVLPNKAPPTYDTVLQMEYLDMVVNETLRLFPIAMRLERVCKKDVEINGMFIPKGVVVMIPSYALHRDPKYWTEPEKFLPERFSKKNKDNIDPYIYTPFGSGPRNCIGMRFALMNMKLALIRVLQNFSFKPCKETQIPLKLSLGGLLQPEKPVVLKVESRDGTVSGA
Kind of data set: Fluorescence-based CYP3a4 assay (Invitrogen VIVID probes), with or without recombinant human FKBP. It counts as in vitro ADME. An excerpt:
An amyloid ligand, curcumin, is known to be a good substrate for CYP3a4 (a common P450 enzyme). We investigated whether conjugates between curcumin and FK506 would also be substrates for the enzyme. To test this possibility, we utilized a well-known fluorescence-based CYP3a4 assay. This assay, marketed by Invitrogen (Carlsbad, Calif.), under the name VIVID probes, relies on cytochrome-mediated production of a fluorescent marker from a model substrate. When a compound, such as curcumin, binds to the P450, it displaces the substrate and reduces the rate of production of the fluorescent product. […] However, when we supplied a source of human FKBP (in this case, recombinant bacterially-expressed protein), we observed very different results as shown in FIG. 3. […] It is believed that FKBP protects the curcumin conjugates from degradation by sterically hindering CYP3a4 binding. In the presence of cellular FKBP sources, this effect would be predicted to be increased because the compartmentalization of the conjugate further reduces availability to P450 enzymes.

For data set [4] the following is noted: unmodified drug; cited from earlier work.

For the compound `C=CC[C@@H]1/C=C(\C)C[C@H](C)C[C@H](OC)[C@H]2O[C@@](O)(C(=O)C(=O)N3CCCC[C@H]3C(=O)O[C@H](/C(C)=C/[C@@H]3CC[C@@H](O)[C@H](OC)C3)[C@H](C)[C@@H](O)CC1=O)[C@H](C)C[C@@H]2OC` [FK506, FK506 (tacrolimus)], the half-life – broadly, the time in which the quantity being followed falls by half – in data set [1] is 21 h. Further, the “distribution into protected cellular compartments (in the blood)” value in data set [2] is given as 72-98%.

`COc1cc(/C=C/C(=O)CC(=O)/C=C/c2ccc(O)c(OC)c2)ccc1O` [curcumin]: the “protection from degradation by CYP3a4” value in data set [3] (in the presence of recombinant human FKBP) is on record as “unable to protect”. The “substrate for CYP3a4” value in data set [3] (without FKBP) was “good substrates”.

Consider `CN(Cc1cnc2nc(N)nc(N)c2n1)c1ccc(C(=O)N[C@@H](CCC(=O)O)C(=O)O)cc1` [methotrexate], for which, in data set [4], the half-life was 6 h.
